Laboratory results as given in the supplement of paper PMC10307832.

Tests used:
Test in all cases: relative viability (nuclei count vs DMSO), 5 days (fraction); higher = more cells survive
[1] = compound: NC(=O)[C@@H](CCC(F)(F)F)N(Cc1ccc(-c2ncon2)cc1F)S(=O)(=O)c1ccc(Cl)cc1 [Avagacestat] + COc1cccc2cc(-c3nc([C@H]4CC[C@H](C(=O)O)CC4)n4ncnc(N)c34)[nH]c12 [OSI-027] (partner 0.5 µM)
Outline: (§1)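 Values are medians from duplicate plates. Each reflects relative viability, defined as the nuclei count of treated wells over that of vehicle wells. Lung cancer cell lines in 1536-well plates were pin-tool dosed one day after seeding with one drug alone or with a fixed anchor-drug dose plus five library-drug doses (not always all listed) in √10 steps, then fixed, stained and imaged at 4× after 5 days.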

[2] = compound: NC(=O)[C@@H](CCC(F)(F)F)N(Cc1ccc(-c2ncon2)cc1F)S(=O)(=O)c1ccc(Cl)cc1 [Avagacestat] + C[C@@H](Oc1cc(-c2cnn(C3CCNCC3)c2)cnc1N)c1c(Cl)ccc(F)c1Cl [Crizotinib] (partner 1 µM)
Outline: as §1

[3] = compound: NC(=O)[C@@H](CCC(F)(F)F)N(Cc1ccc(-c2ncon2)cc1F)S(=O)(=O)c1ccc(Cl)cc1 [Avagacestat] + N=C(N)NC(=N)NCCc1ccccc1 [Phenformin] (partner 250 µM)
Outline: as §1

[4] = compound: NC(=O)[C@@H](CCC(F)(F)F)N(Cc1ccc(-c2ncon2)cc1F)S(=O)(=O)c1ccc(Cl)cc1 [Avagacestat] + CC(=O)Nc1cccc(-n2c(=O)n(C3CC3)c(=O)c3c(Nc4ccc(I)cc4F)n(C)c(=O)c(C)c32)c1 [Trametinib] (partner 0.02 µM)
Outline: as §1

Cell Line	relative viability ([1]; first compound 0.08 µM)	relative viability ([1]; first compound 0.253 µM)	relative viability ([1]; first compound 0.8 µM)	relative viability ([1]; first compound 2.53 µM)	relative viability ([1]; first compound 8 µM)	relative viability ([2]; first compound 0.08 µM)	relative viability ([2]; first compound 0.253 µM)	relative viability ([2]; first compound 0.8 µM)	relative viability ([2]; first compound 2.53 µM)	relative viability ([2]; first compound 8 µM)	relative viability ([3]; first compound 0.08 µM)	relative viability ([3]; first compound 0.253 µM)	relative viability ([3]; first compound 0.8 µM)	relative viability ([3]; first compound 2.53 µM)	relative viability ([3]; first compound 8 µM)	relative viability ([4]; first compound 0.08 µM)	relative viability ([4]; first compound 0.253 µM)	relative viability ([4]; first compound 0.8 µM)	relative viability ([4]; first compound 2.53 µM)	relative viability ([4]; first compound 8 µM)
201T	0.803	0.988	0.942	0.529	0.76	1.06	0.991	1.03	1.04	1.01	0.55	0.514	0.471	0.424	0.424	0.732	0.749	0.761	0.691	0.625
A-427	0.543	0.474	0.421	0.403	0.445	0.986	1.19	0.842	0.75	0.837	0.312	0.27	0.312	0.268	0.296	0.84	0.898	0.71	0.694	0.742
ABC-1	0.442	0.537	0.637	0.401	0.418	1.05	1.59	1.53	1.09	1.09	0.232	0.228	0.221	0.25	0.263	–	–	–	–	–
BEN	0.313	0.303	0.544	0.303	0.327	0.835	1.12	0.835	0.607	0.809	0.262	0.274	0.271	0.25	0.26	1.1	1.18	1.05	0.917	1.13
CAL-12T	1.01	0.873	0.957	0.841	0.607	0.607	0.52	0.717	0.627	0.679	0.721	0.578	0.662	0.614	0.403	0.407	0.417	0.418	0.413	0.443
COR-L23	1.06	1.02	0.906	0.697	0.661	0.678	0.642	0.552	0.643	0.441	0.463	0.444	0.423	0.435	0.359	0.765	0.741	0.818	0.632	0.414
COR-L 105	0.614	0.687	0.74	0.525	0.486	0.856	0.815	0.919	0.547	0.72	0.534	0.407	0.448	0.397	0.429	0.401	0.45	0.457	0.42	0.474
Calu-6	–	–	–	–	–	0.998	0.968	0.885	0.824	0.691	–	–	–	–	–	–	–	–	–	–
ChaGo-K-1	0.659	0.655	0.6	0.456	0.451	1.06	1.31	1.11	1.05	0.974	0.599	0.53	0.511	0.49	0.514	0.95	0.933	0.897	0.817	0.797
EKVX	0.675	0.687	0.72	0.461	0.659	1.02	1.35	1.06	0.899	0.857	0.234	0.259	0.278	0.256	0.229	0.468	0.39	0.348	0.303	0.298
EMC-BAC-2	0.364	0.445	0.429	0.396	0.364	0.797	0.844	0.766	0.704	0.719	0.518	0.607	0.574	0.522	0.489	0.986	1.2	1.05	0.955	1.02
EPLC-272H	0.274	0.259	0.326	0.226	0.28	1.06	0.988	1.03	0.969	0.799	0.309	0.321	0.321	0.306	0.328	0.309	0.295	0.316	0.333	0.248
H3255	0.642	0.74	0.828	0.625	0.621	1.05	1.07	1.01	0.872	0.865	0.357	0.352	0.326	0.353	0.431	0.673	0.644	0.777	0.569	0.589
HARA	0.603	0.57	0.484	0.383	0.49	1.23	1.27	1.06	1.03	0.76	0.486	0.516	0.42	0.486	0.42	0.704	0.764	0.757	0.536	0.647
